28 molecules from patent US20220135567A1, “TYK2 PSEUDOKINASE LIGANDS” (Ventyx Biosciences, Inc., priority 2019, published 2022) can be followed below.

Molecules are shown by their SMILES.

The test system of the test is IFN-a/Jak1Tyk2. The experiment in a line: Co-stimulation assay in lysed whole blood: IFNa (JAK1/TYK2) stimulated STAT1 phosphorylation. In kind it is cell-based. As to conditions: 20 min, lysed human whole blood, IFNa 100 ng/mL + GM-CSF 10 ng/mL, pSTAT1 by flow cytometry. In outline:
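Red-cell-lysed human whole blood, pretreated with compound for 1 h at 37°C, was stimulated 20 min at 37°C with IFNa (100 ng/mL final) plus GM-CSF (10 ng/mL final). Cells were then fixed/lysed, permeabilised in Perm Buffer III and stained overnight for pSTAT1 (PE) and pSTAT5. Read-out by flow cytometry.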
`CNc1cc(Nc2cccc3c2OCCC3)nc2c(C(=O)NC3CCC3)cnn12` [Compound 89, 5-(chroman-8-ylamino)-N-cyclobutyl-7-(methylamino)pyrazolo[1,5-a]pyrimidine-3-carboxamide]: the concentration for half-maximal inhibition (IC50) was under 100 nM.

For the molecule `CNc1cc(Nc2cccc3c2OCCC3)nc2c(C(=O)NCC(C)(C)CO)cnn12` [Compound 90, 5-(chroman-8-ylamino)-N-(3-hydroxy-2,2-dimethylpropyl)-7-(methylamino)pyrazolo[1,5-a]pyrimidine-3-carboxamide], the half-inhibitory concentration (IC50) was under 100 nM.

Consider `CNc1cc(Nc2cccn(C)c2=O)nc2c(C(=O)NC3CC(F)(F)C3)cnn12` [Compound 91, N-(3,3-difluorocyclobutyl)-5-((1-methyl-2-oxo-1,2-dihydropyridin-3-yl)amino)-7-(methylamino)pyrazolo[1,5-a]pyrimidine-3-carboxamide], for which the IC50 is 1000 to 10000 nM.

`CNc1cc(Nc2cc(Cl)cc3c2OCCO3)nc2c(C(=O)NCC(C)(C)CO)cnn12` [Compound 92, 5-((7-chloro-2,3-dihydrobenzo[b][1,4]dioxin-5-yl)amino)-N-(3-hydroxy-2,2-dimethylpropyl)-7-(methylamino)pyrazolo[1,5-a]pyrimidine-3-carboxamide]: the concentration for half-maximal inhibition (IC50) was under 100 nM.

As for `[2H]C([2H])([2H])n1cccc(Nc2cc(NC)n3ncc(C(=O)NC4CCC4)c3n2)c1=O` [Compound 93, N-cyclobutyl-5-((1-(methyl-d3)-2-oxo-1,2-dihydropyridin-3-yl)amino)-7-(methylamino)pyrazolo[1,5-a]pyrimidine-3-carboxamide], the half-maximal inhibitory concentration (IC50) is under 100 nM.

In the case of `[2H]C([2H])([2H])Nc1cc(Nc2cccn(C)c2=O)nc2c(C(=O)NC3CCC3)cnn12` [Compound 94, N-cyclobutyl-5-((1-methyl-2-oxo-1,2-dihydropyridin-3-yl)amino)-7-((methyl-d3)amino)pyrazolo[1,5-a]pyrimidine-3-carboxamide], the IC50 was under 100 nM.

For `CNc1cc(Nc2cccc3c2OCCO3)nc2c(C(=O)NC3(C#N)CC3)cnn12` [Compound 95, N-(1-cyanocyclopropyl)-5-((2,3-dihydrobenzo[b][1,4]dioxin-5-yl)amino)-7-(methylamino)pyrazolo[1,5-a]pyrimidine-3-carboxamide], the 50% inhibitory concentration (IC50) was under 100 nM.

With `CNc1cc(Nc2cccc3c2OCCO3)nc2c(C(=O)NC3CCC3)cnn12` [Compound 96, N-cyclobutyl-5-((2,3-dihydrobenzo[b][1,4]dioxin-5-yl)amino)-7-(methylamino)pyrazolo[1,5-a]pyrimidine-3-carboxamide], the concentration for half-maximal inhibition (IC50) is under 100 nM.

As to `CNc1cc(Nc2cccc3c2OCCO3)nc2c(C(=O)NC3C[C@@H]3F)cnn12` (stereo partly drawn) [Compound 97, 5-((2,3-dihydrobenzo[b][1,4]dioxin-5-yl)amino)-N-((2S)-2-fluorocyclopropyl)-7-(methylamino)pyrazolo[1,5-a]pyrimidine-3-carboxamide], the half-inhibitory concentration (IC50) was under 100 nM.

Take `[2H]C([2H])([2H])Nc1cc(Nc2cc(F)cc3c2OCCO3)nc2c(C(=O)NCC(C)(C)CO)cnn12` [Compound 98, 5-((7-fluoro-2,3-dihydrobenzo[b][1,4]dioxin-5-yl)amino)-N-(3-hydroxy-2,2-dimethylpropyl)-7-((methyl-d3)amino)pyrazolo[1,5-a]pyrimidine-3-carboxamide]: the IC50 was under 100 nM.

With `CNc1cc(Nc2cccn(-c3cccc(C)n3)c2=O)nc2c(C(=O)NC3CC(C#N)C3)cnn12` (stereo not shown) [Compound 99, N-(3-cyanocyclobutyl)-5-((6′-methyl-2-oxo-2H-[1,2′-bipyridin]-3-yl)amino)-7-(methylamino)pyrazolo[1,5-a]pyrimidine-3-carboxamide], the IC50 was in the range of 1000 to 10000 nM.

For the molecule `CNc1cc(Nc2cccn(-c3cccc(C)n3)c2=O)nc2c(C(=O)NC3CC(O)C3)cnn12` (stereo not shown) [Compound 100, N-(3-hydroxycyclobutyl)-5-((6′-methyl-2-oxo-2H-[1,2′-bipyridin]-3-yl)amino)-7-(methylamino)pyrazolo[1,5-a]pyrimidine-3-carboxamide], the 50% inhibitory concentration (IC50) lay in the range of 1000 to 10000 nM.

As for `CNc1cc(Nc2cccn(-c3ccc(OC)nn3)c2=O)nc2c(C(=O)N[C@@H]3C[C@@H]3F)cnn12` [Compound 101, N-((1R,2S)-2-fluorocyclopropyl)-5-((1-(6-methoxypyridazin-3-yl)-2-oxo-1,2-dihydropyridin-3-yl)amino)-7-(methylamino)pyrazolo[1,5-a]pyrimidine-3-carboxamide], the half-maximal inhibitory concentration (IC50) was under 100 nM.

In the case of `CNc1cc(Nc2cccc3c2OCCO3)nc2c(C(=O)NC3CC(O)C3)cnn12` (stereo not shown) [Compound 102, 5-((2,3-dihydrobenzo[b][1,4]dioxin-5-yl)amino)-N-(3-hydroxycyclobutyl)-7-(methylamino)pyrazolo[1,5-a]pyrimidine-3-carboxamide], the half-inhibitory concentration (IC50) is under 100 nM.

In the case of `CNc1cc(Nc2cccn(-c3ccc(OC)nn3)c2=O)nc2c(C(=O)NCC(C)(C)O)cnn12` [Compound 103, N-(2-hydroxy-2-methylpropyl)-5-((1-(6-methoxypyridazin-3-yl)-2-oxo-1,2-dihydropyridin-3-yl)amino)-7-(methylamino)pyrazolo[1,5-a]pyrimidine-3-carboxamide], the IC50 fell in the range of 1000 to 10000 nM.

Turning to `CNc1cc(Nc2cccn(-c3ccc(OC)nn3)c2=O)nc2c(C(=O)NC3CC(O)C3)cnn12` (stereo not shown) [Compound 104, N-(3-hydroxycyclobutyl)-5-((1-(6-methoxypyridazin-3-yl)-2-oxo-1,2-dihydropyridin-3-yl)amino)-7-(methylamino)pyrazolo[1,5-a]pyrimidine-3-carboxamide], the IC50 is 100 to 1000 nM.

With `CNc1cc(Nc2cccn(-c3ccc(OC)nn3)c2=O)nc2c(C(=O)NCC(C)(O)CO)cnn12` (stereo not shown) [Compound 105, N-(2,3-dihydroxy-2-methylpropyl)-5-((1-(6-methoxypyridazin-3-yl)-2-oxo-1,2-dihydropyridin-3-yl)amino)-7-(methylamino)pyrazolo[1,5-a]pyrimidine-3-carboxamide], the IC50 was over 3000 nM.

On to `CNc1cc(Nc2cccn(-c3ccc(OC)nn3)c2=O)nc2c(C(=O)NC3CCOC3)cnn12` (stereo not shown) [Compound 106, 5-((1-(6-methoxypyridazin-3-yl)-2-oxo-1,2-dihydropyridin-3-yl)amino)-7-(methylamino)-N-(tetrahydrofuran-3-yl)pyrazolo[1,5-a]pyrimidine-3-carboxamide], for which the 50% inhibitory concentration (IC50) was in the range of 100 to 1000 nM.

Take `CNc1cc(Nc2cccn(C)c2=O)nc2c(C(=O)N[C@H]3C[C@H]3F)cnn12` [Compound 107, N-((1S,2R)-2-fluorocyclopropyl)-5-((1-methyl-2-oxo-1,2-dihydropyridin-3-yl)amino)-7-(methylamino)pyrazolo[1,5-a]pyrimidine-3-carboxamide]: the IC50 was under 100 nM.

Consider `CCOc1ccc(-n2cccc(Nc3cc(NC)n4ncc(C(=O)NC5CCC5)c4n3)c2=O)nn1` [Compound 108, N-cyclobutyl-5-((1-(6-ethoxypyridazin-3-yl)-2-oxo-1,2-dihydropyridin-3-yl)amino)-7-(methylamino)pyrazolo[1,5-a]pyrimidine-3-carboxamide], for which the IC50 is under 100 nM.

As to `CNc1cc(Nc2cc(F)cc3c2OCCO3)nc2c(C(=O)NCC(C)(C)CO)cnn12` [Compound 109, 5-((7-fluoro-2,3-dihydrobenzo[b][1,4]dioxin-5-yl)amino)-N-(3-hydroxy-2,2-dimethylpropyl)-7-(methylamino)pyrazolo[1,5-a]pyrimidine-3-carboxamide], the 50% inhibitory concentration (IC50) is under 100 nM.

`CNc1cc(Nc2cccn(-c3ccnc(C)n3)c2=O)nc2c(C(=O)NC3CCC3)cnn12` [Compound 110, N-cyclobutyl-7-(methylamino)-5-((1-(2-methylpyrimidin-4-yl)-2-oxo-1,2-dihydropyridin-3-yl)amino)pyrazolo[1,5-a]pyrimidine-3-carboxamide]: the half-inhibitory concentration (IC50) was under 100 nM.

With `CNc1cc(Nc2cccn(-c3cccc(C)n3)c2=O)nc2c(C(=O)N[C@H]3C[C@H]3F)cnn12` [Compound 111, N-((1S,2R)-2-fluorocyclopropyl)-5-((6′-methyl-2-oxo-2H-[1,2′-bipyridin]-3-yl)amino)-7-(methylamino)pyrazolo[1,5-a]pyrimidine-3-carboxamide], the half-inhibitory concentration (IC50) was under 100 nM.

With `CNc1cc(Nc2cccn(-c3cccc(C)n3)c2=O)nc2c(C(=O)NC3CCC3)cnn12` [Compound 112, N-cyclobutyl-5-((6′-methyl-2-oxo-2H-[1,2′-bipyridin]-3-yl)amino)-7-(methylamino)pyrazolo[1,5-a]pyrimidine-3-carboxamide], the half-inhibitory concentration (IC50) is under 100 nM.

`CNc1cc(Nc2cccn(C)c2=O)nc2c(C(=O)NC3CCC3)cnn12` [Compound 113, N-cyclobutyl-5-((1-methyl-2-oxo-1,2-dihydropyridin-3-yl)amino)-7-(methylamino)pyrazolo[1,5-a]pyrimidine-3-carboxamide]: the 50% inhibitory concentration (IC50) is under 100 nM.

Regarding `CNc1cc(Nc2cccn(-c3ccccn3)c2=O)nc2c(C(=O)NC3CCC3)cnn12` [Compound 114, N-cyclobutyl-7-(methylamino)-5-((2-oxo-2H-[1,2′-bipyridin]-3-yl)amino)pyrazolo[1,5-a]pyrimidine-3-carboxamide], the IC50 was under 100 nM.

In the case of `CNc1cc(Nc2cccn(-c3ccccn3)c2=O)nc2c(C(=O)N[C@H]3C[C@H]3F)cnn12` [Compound 115, N-((1S,2R)-2-fluorocyclopropyl)-7-(methylamino)-5-((2-oxo-2H-[1,2′-bipyridin]-3-yl)amino)pyrazolo[1,5-a]pyrimidine-3-carboxamide], the IC50 was under 100 nM.

Regarding `CNc1cc(Nc2cnn(C3CCNC3=O)c2)nc2c(C(=O)NC3CC3)cnn12` (stereo not shown) [Compound 116, N-cyclopropyl-7-(methylamino)-5-((1-(2-oxopyrrolidin-3-yl)-1H-pyrazol-4-yl)amino)pyrazolo[1,5-a]pyrimidine-3-carboxamide], the 50% inhibitory concentration (IC50) lay in the range of 1000 to 10000 nM.
